pEC50, pIC50: −log10 of the molar value. The source made the active and inactive calls.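 The calls were made as follows: active = compounds giving half or more protection of infected cells from virus-caused growth loss, again on retest; inactive = the rest.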
Test system: CEM cells HIV-1 protection, formazan growth assay
Experiment: NCI AIDS Antiviral Assay
Conditions: for pIC50: measured here: growth of uninfected CEM cells
Summary of the method: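 Protection of CEM cells against HIV-1 measured as cell growth via soluble formazan read-out, with five concentrations tested on both infected and uninfected cells; failure to protect may reflect toxicity.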

SMILES	pEC50	pIC50	outcome
C1CCC2(CC1)SSSC1(CCCCC1)SS2	< 4.00	< 4.00	
CC12CCC(C(Br)C1=O)C2(C)CBr (stereo not given)			inactive
Nc1nnc(N)n1-n1c(N)nnc1N	< 3.70	3.78	
CC1(C)CC[C@]2(C)CC=C3[C@]4(C)CC[C@H]5C(C)(C)C(=O)CC[C@]5(C)[C@H]4CC[C@@]3(C)[C@H]2C1	< 4.30	< 4.30	
c1cncc(C2c3[nH]c4ccccc4c3CCN2CCCN2CCCCC2)c1 (stereo not given)	< 5.41	< 5.41	
O=C1C(=Cc2ccc([N+](=O)[O-])o2)C(=O)N(CCc2ccccc2)S(=O)(=O)N1CCc1ccccc1	< 5.28	< 5.28	
CCC(/C=C/c1ccccc1)=N\N=C(\C=C\c1ccccc1)CC	< 4.38	5.60	
Cc1ccc(S(=O)(=O)ON/N=C2/C3OC3[C@@H]3CCCC[C@H]23)cc1 (stereo not given in full)	< 3.41	3.71	
O=C(c1ccccc1)[C@@]12COc3ccccc3[C@@H]1ON=C2c1ccccc1	< 4.97	< 4.97	
COC(=O)C(N=O)C(=O)OC			inactive
CCC[CH2][Sn]([CH2]CCC)([O]C(=O)c1cc(F)ccc1F)[O]C(=O)c1cc(F)ccc1F	< 4.88	6.00	
CCOP(=O)(OCC)/C(C#N)=C/c1cnc(-c2ccccc2)[nH]1	< 3.70	3.99	
CCN1C[C@]2(COC)CCC(=O)C34[C@@H]5C[C@@H]6C(O)[C@@H]5[C@](O)(C[C@@H]6OC)[C@@H](C(OC)[C@@H]32)[C@H]14 (stereo not given in full)			inactive
CCOC(=O)N(C)C1(c2ccccc2)CCN(CCCC(=O)c2ccc(F)cc2)CC1	< 3.70	4.08	
CO/C(N)=C(\C#N)N=Cc1ccccc1	< 3.70	3.98	
C=C1c2nc3ccccc3n2C=C(c2ccccc2)N1c1ccc(C)cc1	< 3.70	4.55	
COc1ccccc1NC(=O)CC(=O)n1nc(C)c(N=Nc2ccccc2Cl)c1C			inactive
COC(=O)[C@]12CSC[C@H]1C[C@H](c1ccc(N(C)C)cc1)N2	< 3.70	< 3.70	
COc1ccc([C@@]23CCC(=O)C[C@@H]2N(C)CC3)cc1OC	< 3.70	< 3.70	
CCCC1C(CC)C(NC)C(C#N)(C#N)C1(C#N)C#N (stereo not given)	< 3.70	4.99	
O=C(O)c1ccccc1C(=O)Nn1cnnc1	< 3.70	< 3.70	
CC1=CC(=O)/C(=C\N2C(=O)CC(=O)NC2=S)C(=O)O1	< 4.00	< 4.00	

SMILES	pEC50	pIC50	outcome
COc1ccc(OC)c(NC(=O)CCC/C(CC(=O)c2ccc(O)c(OC)c2)=N\Nc2nnc(C)n2N)c1	< 5.14	< 5.14	
COc1cc(/C=C2/CCS(=O)(=O)c3ccc(C)cc3C2=O)cc(OC)c1OC	< 3.70	5.43	
O=C(Nc1ccc(CN2CCOCC2)cc1)c1ccc(C(=O)Nc2ccc(CN3CCOCC3)cc2)cc1	< 3.70	< 3.70	
Cn1cnc([N+](=O)[O-])c1Sc1ccccn1	< 2.98	4.37	
COc1ccc2c(c1)-c1[nH]c3ccccc3c1CC2	< 3.70	4.92	
N#Cc1c(-c2ccco2)cc(-c2ccccc2)[nH]c1=O	< 4.70	< 4.70	
COC(=O)CC(=O)C[P+](c1ccccc1)(c1ccccc1)c1ccccc1	< 3.26	4.37	
CN(C)COC(=S)[S-].CN(C)COC(=S)[S-].CN(C)COC(=S)[S-].[Fe+6]	< 5.70	6.44	
Cc1c(O)c(OC2OC(CO)C(O)C(O)C2O)cc2c1CC[C@@H]1C2(C)C(=O)C[C@]2(C)[C@@H]([C@@](C)(O)C(O)/C=C/C(C)(C)O)[C@H](O)C[C@@]12C (stereo not given in full)	< 3.70	< 3.70	
COc1ccc(OC)c(NC(=O)C(=O)C(C(C)=O)c2nc3ccc(Cl)cc3[nH]c2=O)c1 (stereo not given)	< 4.09	< 4.09	
CN(C)C1=CC(=O)C(=O)c2cnc(N(C)C)cc21			inactive
CC(=O)Nc1ccc(S(=O)(=O)/N=C(/C2CCCC2)N2CCCC2)cc1	< 3.70	< 3.70	
C[C@H]1CN[C@@H]2[C@@H](C)[C@H]3[C@@H](C[C@H]4[C@@H]5CC[C@H]6C[C@@H](N)CC[C@]6(C)[C@H]5CC[C@]34C)O[C@@]2(O)C1	< 4.42	5.76	
Cn1c2ccccc2n2c3ncccc3c(=S)c(C#N)c12	< 3.70	< 3.70	
Cc1cc(N=Nc2cc(S(=O)(=O)O)c(N)cc2N)ccc1N=Nc1ccc2cc(S(=O)(=O)O)cc(S(=O)(=O)O)c2c1			inactive
ClC1C(Cl)C2CC1C1CC3OC3C21 (stereo not given)	< 3.70	< 3.70	
Clc1ccc(CSc2ccc3nncc(SCc4ccc(Cl)cc4Cl)c3c2)c(Cl)c1	< 4.53	< 4.53	
O=C(NC(N1CCN(c2cc3c(cc2F)c(=O)c(C(=O)O)cn3C2CC2)CC1)(C(F)(F)F)C(F)(F)F)c1ccccc1	< 3.70	3.98	
CC(=O)Nc1cccc2[nH]c3ccccc3c(=O)c12			inactive
Cc1cc(=O)oc2c(C)c(O)ccc12	< 3.86	4.01	
Nc1nc2c(ncn2CC2CCOC2=O)c(=O)[nH]1 (stereo not given)			inactive
O=C(/C=C/c1ccc(OCCCOc2ccc(/C=C/C(=O)c3ccc(Cl)cc3)cc2)cc1)c1ccc(Cl)cc1	< 4.89	< 4.89	
